# Values quoted from earlier work in US10149821B2, “Orosoluble and/or effervescent compositions containing at least a salt of S-adenosyl methionine (SAMe)” (priority 2009, dated 2018).
# Assays:
# [1] = oral intake, SAMe radiolabeled on the carbon of the methyl group
# [2] = not given; remark: listed apart in the source
# [3] = temperatures above 0° C.
structure (smiles),measurement,setting,value
"C[S+](CC[C@H](N)C(=O)O)C[C@H]1O[C@@H](n2cnc3c(N)ncnc32)[C@H](O)[C@@H]1O (some centres unmarked) [SAMe, S-adenosyl methionine]","plasma levels of the non-modified molecule, % of the administered dose","oral intake, swallowable gastro-protected tablets",5-10%
same,"plasma bioavailability, % of the administered dose",parenteral administration (endovenous or intramuscular),90-100%
same,"hepatic metabolism, % of the administered radioactivity",[1],about 60%
same,half-life in the liver,[2],about 5 minutes
same,stability,[3],very unstable
